# In patent US11202789B2, “Method of treating glycogen storage disease” (Viking Therapeutics, Inc., priority 2016, dated 2021):
# Columns and labels:
# Type in all cases: in vivo
# [1] = test system: male diet-induced obese (DIO) C57Bl/6 mice; test: 2, 5 and 10 week study in mouse model of diet-induced obesity
# Protocol: Objectives: The objectives of this study were to evaluate the effects of 2, 5 and 10 weeks of Compound 2 treatment at doses of 10 and 30 mg/kg/day on total plasma cholesterol levels, blood glucose levels, and hepatic steatosis in a mouse model of diet-induced obesity.
# Methods: Male C57Bl/6 mice (4 weeks old) were fed a high-fat diet (60% fat by kcal) for 88 days to induce obesity, hyperlipidemia, and mild hyperglycemia prior to initiation of the study. For the study, 3 groups of mice (n=24-28) were dosed daily by gavage with 10 or 30 mg/kg of Compound 2 or vehicle (0.1% carboxymethylcellulose) and maintained on the same high-fat diet. During treatment, body weight, total plasma cholesterol levels, and blood glucose levels of the animals were measured weekly. Subsets of animals (n=6-12; 30 mg/kg/day) were sacrificed prior to treatment and after 2, 5 and 10 weeks of treatment for analysis of liver weights, liver triglyceride levels and liver histology.
# [2] = test system: G6PC−/− mice; test: G6pc−/− mouse model of GSD Ia, 4 days of treatment (Example 13)
# Protocol: The objective of this study was to determine the ability of Compound 2, a small molecule prodrug of a potent thyroid hormone beta receptor (TBR) agonist, to reduce hepatic steatosis and other metabolic derangements in the glucose-6-phosphatase catalytic subunit knockout (G6pc−/−) mouse model of glycogen storage disease type Ia (GSD Ia).
# Mice were treated with Compound 2 or with vehicle, using 4 groups of 6-7 mice: G6pc−/−mice receiving Compound 2, G6pc−/−mice receiving vehicle, Wt mice receiving Compound 2, and WT mice receiving vehicle. Daily injection of 0.1 to 0.2 mL 10% dextrose subcutaneously was initiated at 3 days of age for all mice, and all mice continued to receive daily dextrose injections throughout drug or vehicle treatment. Dextrose was not administered on the day of tissue collection. Mice were treated daily with Compound 2 or with vehicle, respectively, from 5 to 8 days of age. Mice were sacrificed on Day 9, and blood and tissues were collected. The fasting serum glucose and triglycerides, hepatic lipid and glycogen content, and GSD-related cell signaling pathways were examined.
# [3] = test system: male ob/ob mice; test: 9-week efficacy and safety study in male ob/ob mice; conditions: for total plasma cholesterol levels lower: after 9 weeks; for liver triglyceride levels lower: at 9 weeks
# Protocol: The objective of this study was to evaluate the efficacy and safety of Compound 2 treatment at doses of 3, 10, and 30 mg/kg/day for 9 weeks in male ob/ob mice. 3,3′,5-Triiodo-L-thyronine (T3) was used as a comparator in this study.
# Methods: Seventy-eight adult male ob/ob mice were assigned to six different treatment groups (n=6-24/group). Animals were dosed daily with either vehicle [1% carboxymethylcellulose (CMC) in water, PO], T3 [(100 nmole/kg/day in aqueous solution, subcutaneous (SC)], or Compound 2 [3, 10 or 30 mg/kg/day in 1% CMC, PO]. Blood glucose and plasma cholesterol were measured weekly in all animals. Subsets of animals in the vehicle-treated and 30 mg/kg/day Compound 2-treated groups were sacrificed after 3, 6 and 9 weeks of treatment to analyze the temporal effects of Compound 2 on liver weight and liver triglyceride levels. Liver triglyceride levels, liver glycogen content, heart, liver and epididymal fat pad weights, and plasma clinical chemistry parameters were measured at sacrifice.
# [4] = 10 and 30 mg/kg/day, following 2, 5 and 10 weeks, vs vehicle
compound,measurement,setting,value
Cc1cc(OCP2(=O)OCCC(c3cccc(Cl)c3)O2)cc(C)c1Cc1ccc(O)c(C(C)C)c1 (stereo not shown) [Compound 2],macrovesicular and microvesicular steatosis (liver histology),"[1]; 30 mg/kg/day, after 2, 5 and 10 weeks, vs vehicle",visually reduced
same,blood glucose levels lower,"[1]; 10 and 30 mg/kg/day by gavage, most time points, vs vehicle",up to 25%
same,total plasma cholesterol levels decreased,"[1]; 10 and 30 mg/kg/day by gavage, week 1 through end of study, vs vehicle",more than 50%
same,liver weights lower,[1]; [4],~50%
same,liver-to-body weight ratios lower,[1]; [4],~40%
same,body weight gain,"[1]; 10 and 30 mg/kg/day, up to 10 weeks",tended to reduce
same,total liver triglyceride content (mg/liver) lower,"[1]; 10 and 30 mg/kg/day, weeks 2, 5 and 10, vs vehicle",up to 60%
same,liver triglyceride concentrations (mg/g liver),"[1]; 10 or 30 mg/kg/day, any time point, vs vehicle",No significant changes
same,"difference in kidney mass as a percentage of total body mass, Compound 2 vs vehicle",[2]; G6pc−/− mice (FIG. 23B),not significant
same,mean total liver triglycerides reduced,"[2]; G6pc−/− mice, 4 days of drug treatment, vs vehicle-treated controls, p<0.0001",69.0%
same,mean serum triglyceride concentration,"[2]; G6pc−/− mice, drug treatment (vehicle 729.59 mg/dL)",336.58 mg/dL
same,decrease in mean serum triglyceride concentration,"[2]; G6pc−/− mice, drug treatment vs vehicle",54.0%
same,mean total liver triglycerides,"[2]; G6pc−/− mice, following 4 days of drug treatment (vehicle 13.550 mg)",4.210 mg
same,blood glucose measurements,"[2]; G6pc−/− mice, lower detection limit of the glucometer (FIG. 27)",< 20 mg/dL
same,mean liver weights,"[2]; G6pc−/− mice, treated (control 393.55 mg)",253.11 mg
same,mean liver weights reduced,"[2]; G6pc−/− mice, treated vs control, p<0.05",over 30%
same,body mass,[2]; daily treatment from 5 to 8 days of age (FIG. 22),not affected
same,kidney mass,[2]; daily treatment from 5 to 8 days of age (FIG. 23),not affected
same,liver glycogen concentration,[2]; under the dosing parameters chosen (FIG. 26),no significant changes
same,serum glucose concentration,[2]; under the dosing parameters chosen (FIG. 27),no significant changes
same,serum triglyceride concentration,[2]; under the dosing parameters chosen (FIG. 28),no significant changes
same,total plasma cholesterol levels lower,"[3]; 3 mg/kg/day PO, vs vehicle",~43%
same,liver glycogen content,"[3]; 10 mg/kg/day PO, 9 weeks, vs vehicle (FIG. 5)",significantly (p<0.05) higher
same,total plasma cholesterol levels lower,"[3]; 10 mg/kg/day PO, vs vehicle",~42%
same,liver triglyceride levels lower,"[3]; 10 mg/kg/day PO, vs vehicle",~39%
same,total plasma cholesterol levels lower,"[3]; 30 mg/kg/day PO, vs vehicle",~47%
same,liver triglyceride levels lower,"[3]; 30 mg/kg/day PO, vs vehicle",~46%
same,liver triglyceride levels,"[3]; 30 mg/kg/day PO, from Week 3 onwards, vs vehicle",lower
same,terminal liver glycogen levels,"[3]; Compound 2-treated groups (3, 10, 30 mg/kg/day PO), 9 weeks, vs vehicle",modestly higher or similar
same,alanine aminotransferase (ALT) levels,"[3]; all dose groups (3, 10, 30 mg/kg/day PO)",Decreased
same,terminal liver weights,"[3]; all dose groups (3, 10, 30 mg/kg/day PO), 9 weeks, vs vehicle",lower
